Common to all, as to type: physicochemical
The nature of data set [1]: Solubility in water.
Data set [2] in a line: Particle size of sildenafil free base, Mastersizer 2000 (Malvern), wet method. How it is done: (§1) A preparative experimentation was conducted to analyze the particle size of a sildenafil free base and the characteristics thereof in several film preparations depending on the rpm conditions (3,000 or 5,000 rpm) of a homogenizer (AGI homomixer) and homogenization times (0, 10 and 30 minutes), the film preparations having the same compositions as the Examples shown in Table 6.
First, the raw materials of a sildenafil free base before homogenization were measured for their particle size using Mastersizer 2000 (Malvern) by a wet method, and the results thereof are shown in Table 1. The same procedure was repeated three times.
The particle size changes of a sildenafil free base depending on homogenization times were measured under the condition of a larger scale than the previous experimentation. The homogenization was carried out using a homogenizer (IKA) at 5,000 rpm with increasing homogenization time. The sildenafil free base-containing film preparations used in the homogenization had the same compositions as the Examples shown in Table 6.
(§2) In order to prepare films containing sildenafil free base particles having a smaller size, the film preparation having the same compositions as the Example 8 shown in Table 6 were subject to homogenization using a homogenizer (IKA) at 10,000 rpm for 1 hour.

Data set [3] can be described thus: Visual characteristics of the film prepared (particles, transparency). How it is done: as §1, §2
The mark [4] stands for this setting: after homogenization 3000 rpm, 30 minutes.
Setting [5] is: after homogenization 5000 rpm, 10 minutes.
[6] abbreviates: sildenafil free base raw material before homogenization (Initial).

Structures can show the parent of a compound that is named as a salt.

As for `CCCc1nn(C)c2c(=O)[nH]c(-c3cc(S(=O)(=O)N4CCN(C)CC4)ccc3OCC)nc12` [sildenafil citrate], in data set [1], the Solubility in water entry is “can dissolve in water”.
Turning to `CCCc1nn(C)c2c(=O)[nH]c(-c3cc(S(=O)(=O)N4CCN(C)CC4)ccc3OCC)nc12` [sildenafil free base], in data set [2] (setting [4]), the “Particle size D10” value is 8.91 μm and the “Particle size D90” value is reported as 109.66 μm. Besides, in data set [2] (setting [5]), the “Particle size D10” value is given as 8.59 μm and the “Particle size D90” value was 85.99 μm. In data set [2] (setting [6]), this molecule showed a D10 of 13.48 μm and a D90 of 281.74 μm. In addition, the Characteristics entry in data set [3] (3000 rpm, 30 minutes) is listed as “Particles were visually observed”. Moreover, the Characteristics entry in data set [3] (5000 rpm, 10 minutes) is “Particles were scarcely observed”. Besides, the Solubility in water result in data set [1] is on record as “practically insoluble in water”.

The record behind these values is patent publication US9907759B2, “Sildenafil-free base-containing film preparation and method for producing same” (CTC Bio, Inc., priority 2011, dated 2018).
